Assay results from patent US9458217B2, “Methods of managing graft versus host disease” (EMORY UNIVERSITY, priority 2013, dated 2016).
“Also recorded” adds a separate entry of the source. Where no end group is shown, it is not given here.

Experiments:
[1] = system: CD11c+ cells; assay: Cell viability / direct cytotoxicity on drug exposure in vitro; settings: at the doses that inhibit trogocytosis (FIG. 3)
[2] = system: T cells; assay: T cell proliferation in primary MLR with drug-treated bone marrow; format: cell-based, mice
[3] = system: cross-dressed CD11c+ APC; assay: Drug inhibition of trogocytosis in MLR (frequency of cross-dressed CD11c+ APC by flow cytometry); format: cell-based, mice
Procedure: The frequency of cross-dressed CD11c+ APC on day 6 of MLR was assessed by flow cytometry.
Whether drugs can inhibit cross-dressed APCs from facilitating antigen presentation to donor T cells and prevent GVHD following allo-HSCT was tested. Cross-dressed donor CD11c+ APCs were generated in vivo following allo-HSCT (FIG. 1).

| Compound | cell viability / direct cytotoxic effects [1] | T cell proliferation in primary MLR ([2]; bone marrow treated with 0.05 uM, compared to non-drug treated bone marrow) | allo-reactivity ([2]; summary statement of the data) | exchange of plasma membrane fragments (trogocytosis; frequency of cross-dressed CD11c+ APC) ([3]; in vitro generated cross-dressed CD11c+ cells, day 6 of MLR, flow cytometry (FIG. 3)) | semi-direct presentation of allo-antigen to T cells ([3]; summary statement of the data) | cell viability / direct cytotoxic effects ([1]; listed as VIP antagonist) |
| --- | --- | --- | --- | --- | --- | --- |
| CC(=O)O[C@H]1C(=O)[C@@]2(C)[C@H]([C@H](OC(=O)c3ccccc3)[C@]3(O)C[C@H](OC(=O)[C@H](O)[C@@H](NC(=O)c4ccccc4)c4ccccc4)C(C)=C1C3(C)C)[C@]1(OC(C)=O)CO[C@@H]1C[C@@H]2O [paclitaxel] | without direct cytotoxic effects; also recorded: preserving cell viability | significantly decreased | reduce allo-reactivity | inhibited | reduce semi-direct presentation | – |
| KPRRPYTDNYTRLRKQMAVKKYLNSILN-NH2 [VIPHyb] | without direct cytotoxic effects | – | – | – | – | preserving cell viability |
